Experimental data as given in patent US6423518B1, “Design and production of mutant 2,5-diketo-D-gluconic acid reductase enzymes with altered cofactor dependency” (Rutgers, the State University, priority 2000, dated 2002).

Assays:
[1] = molecular target: T1, 2,5-diketo-D-gluconic acid reductase A, wild type, Corynebacterium sp. (ATCC Strain No. 31090; Genbank Accession No. 4699594; SEQ ID NO:1) (Corynebacterium sp., UniProt P06632); test: Kinetic determination with purified enzyme, NADH cofactor, initial rates (microtiter plate); format: biochemical
T1 construct: GroES fragment (N); made in house; host or cells: E. coli JM109
T1 sequence (P06632 whole entry, the tested form may be a part): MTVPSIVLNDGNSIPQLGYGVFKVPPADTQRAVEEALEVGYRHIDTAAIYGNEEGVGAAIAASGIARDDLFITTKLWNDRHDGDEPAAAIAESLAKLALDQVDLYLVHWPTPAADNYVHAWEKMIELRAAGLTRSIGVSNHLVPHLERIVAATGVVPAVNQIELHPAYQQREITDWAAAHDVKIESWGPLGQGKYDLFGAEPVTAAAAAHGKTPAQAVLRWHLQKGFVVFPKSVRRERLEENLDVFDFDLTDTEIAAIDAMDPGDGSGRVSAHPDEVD
Protocol: (§1) The activities of the purified enzymes were assayed in 96-well microtiter plates on a plate reader.
(§2) Equation (1) is: [formula]
(§3) B=2,5-diketo-D-gluconic acid concentration;
(§4) Kb=Michaelis Constant for 2,5-diketo-D-gluconic acid;
(§5) Kia=Dissociation Constant for NADH;
(§6) Et=Total enzyme concentration.
(§7) However, the parameters could not be fit in this model with any accuracy, due to the large apparent value of KM for 2,5-diketo-D-gluconic acid, and the low concentration of 2,5-diketo-D-gluconic acid that was used. The 2,5-diketo-D-gluconic acid concentrations were not large enough to saturate the enzyme, so a further mathematical simplification was required. Preliminary fitting of the model indicated both kcat and Kb to be very large in comparison to Ka and Kia Therefore, the rate equation was simplified to the following equation (2): [formula]
(§8) This equation is only valid when B<<Kb.
(§9) This equation was then used to fit the kinetic data, with much better results.
(§10) Other comparisons can also be made between the different mutants using these parameters. […]
(§11) Cells containing plasmids for some of the mutant reductases were grown up on a 1 liter scale using a 10 ml inoculum from a saturated overnight culture. The cells were grown until absorbance of the culture at 600 nm was approximately 1.0. The cells were then induced by adding IPTG to a final concentration of 1 mM. The cells were harvested after growth at 37° C. for 4 hours. The cells were then pelleted by centrifugation and frozen for later use. At a later date, cells were thawed and lysed with the Bug Buster detergent (Novagen) containing Complete Protease Inhibitor Cocktail Tablets (Roche). The pH was lowered to 5.5 with 20 mM sodium acetate (NaOAc) and NaCl was added to a final concentration of 0.15 M. After 10 minutes with the detergent, the cell debris was removed by centrifugation, and the supernatant was loaded onto disposable chromatography columns containing a 10 ml bed volume of DEAE Cellulose (Sigma) for a batch weak ion exchange step. The resin was washed with 0.15 M NaCl, still in the presence of NaOAc, pH 5.5. The bound proteins were then eluted by two washes with 0.5 M NaCl. The eluted material was then diluted back to 0.15 M NaCl by the addition of more 20 mM NaOAc buffer. This was then loaded onto a 4.6 mmD/100mml PEEK column (PerSeptive Biosystems) containing 50 μm DEAE Ceramic HyperD F resin (BioSepra) using an FPLC system. The high performance resin was washed with 0.1 M NaCl and the bound proteins were eluted using a linear salt gradient up to 0.4 M NaCl. Active fractions were pooled and the pH was raised to 7.0 using 50 mM bis-Tris. The pooled fractions were then concentrated by ultrafiltration in a stirred cell unit using a polyethersulfone membrane with a 10,000 MW cut-off (Millipore). The concentrate was loaded onto a Superdex-75 gel filtration column (Pharmacia) using 50 mM bis-Tris pH 7.0 with an FPLC system. The active fractions were again pooled. A small sample from the pooled fractions was electrophoresed on a polyacrylamide gel in the presence of SDS in order to insure homogeneity of the final product.
(§12) NADPH and NADH were prepared fresh for each use in kinetic measurements. These reactions were performed in 96-well microtiter plates using a SpectraMax 190 plate reader (Molecular Devices). Varying amounts of cofactor and substrate were added to the wells and reaction was initiated by the addition of the mutant enzyme. The final volume of each reaction was 200 μl, the reactions were buffered with 50 mM bis-Tris pH 7.0, and the temperature was held at 25° C. […] Initial rate data was collected in each well, and a standard curve was generated each day in order to correlate the change in absorbance of the reaction to a change in concentration of cofactors. All measurements were performed in triplicate (at least) and the runs were averaged for use in kinetic modeling.

[2] = molecular target: T2, 2,5-diketo-D-gluconic acid reductase A (Corynebacterium sp., wild type SEQ ID NO:1) variant R238H (Corynebacterium sp., UniProt P06632, R238H); test: as above; format: biochemical
T2 construct: GroES fragment (N); made in house; host or cells: E. coli JM109
T2 sequence (P06632 whole entry R238H, the tested form may be a part): as the sequence (P06632 whole entry, the tested form may be a part) above, with R238H counted along it
Protocol: as §1, §2, §3, §4, §5, §6, §7, §8, §9, §10, §11, §12

[3] = molecular target: T3, 2,5-diketo-D-gluconic acid reductase A (Corynebacterium sp., wild type SEQ ID NO:1) variant R235T (Corynebacterium sp., UniProt P06632, R235T); test: as above; format: biochemical
T3 construct: GroES fragment (N); made in house; host or cells: E. coli JM109
T3 sequence (P06632 whole entry R235T, the tested form may be a part): as the sequence (P06632 whole entry, the tested form may be a part) above, with R235T counted along it
Protocol: as §1, §2, §3, §4, §5, §6, §7, §8, §9, §10, §11, §12

[4] = molecular target: T4, 2,5-diketo-D-gluconic acid reductase A (Corynebacterium sp., wild type SEQ ID NO:1) variant R238E (Corynebacterium sp., UniProt P06632, R238E); test: as above; format: biochemical
T4 construct: GroES fragment (N); made in house; host or cells: E. coli JM109
T4 sequence (P06632 whole entry R238E, the tested form may be a part): as the sequence (P06632 whole entry, the tested form may be a part) above, with R238E counted along it
Protocol: as §1, §2, §3, §4, §5, §6, §7, §8, §9, §10, §11, §12

[5] = molecular target: T5, 2,5-diketo-D-gluconic acid reductase A (Corynebacterium sp., wild type SEQ ID NO:1) variant R235G (Corynebacterium sp., UniProt P06632, R235G); test: as above; format: biochemical
T5 construct: GroES fragment (N); made in house; host or cells: E. coli JM109
T5 sequence (P06632 whole entry R235G, the tested form may be a part): as the sequence (P06632 whole entry, the tested form may be a part) above, with R235G counted along it
Protocol: as §1, §2, §3, §4, §5, §6, §7, §8, §9, §10, §11, §12

[6] = molecular target: T6, 2,5-diketo-D-gluconic acid reductase A (Corynebacterium sp., wild type SEQ ID NO:1) variant K232S (Corynebacterium sp., UniProt P06632, K232S); test: as above; format: biochemical
T6 construct: GroES fragment (N); made in house; host or cells: E. coli JM109
T6 sequence (P06632 whole entry K232S, the tested form may be a part): as the sequence (P06632 whole entry, the tested form may be a part) above, with K232S counted along it
Protocol: as §1, §2, §3, §4, §5, §6, §7, §8, §9, §10, §11, §12

[7] = molecular target: T7, 2,5-diketo-D-gluconic acid reductase A (Corynebacterium sp., wild type SEQ ID NO:1) variant K232G (Corynebacterium sp., UniProt P06632, K232G); test: as above; format: biochemical
T7 construct: GroES fragment (N); made in house; host or cells: E. coli JM109
T7 sequence (P06632 whole entry K232G, the tested form may be a part): as the sequence (P06632 whole entry, the tested form may be a part) above, with K232G counted along it
Protocol: as §1, §2, §3, §4, §5, §6, §7, §8, §9, §10, §11, §12

[8] = system: hemolymph 3-dehydroecdysone 3β-reductase from Spodoptera littoralis; conditions: read-out: KM for NADH; Chen et al. Eur. J. Biochem. 1996; cited from earlier work
[9] = molecular target: T8, 2,5-diketo-D-gluconic acid reductase A (Corynebacterium sp., wild type SEQ ID NO:1) variant K232M (Corynebacterium sp., UniProt P06632, K232M); test: Kinetic determination with purified enzyme, NADH cofactor, initial rates (microtiter plate); format: biochemical
T8 construct: GroES fragment (N); made in house; host or cells: E. coli JM109
T8 sequence (P06632 whole entry K232M, the tested form may be a part): as the sequence (P06632 whole entry, the tested form may be a part) above, with K232M counted along it
Protocol: as §1, §2, §3, §4, §6, §8
(§13) Cells containing plasmids for some of the mutant reductases were grown up on a 1 liter scale using a 10 ml inoculum from a saturated overnight culture. The cells were grown until absorbance of the culture at 600 nm was approximately 1.0. The cells were then induced by adding IPTG to a final concentration of 1 mM. The cells were harvested after growth at 37° C. for 4 hours. The cells were then pelleted by centrifugation and frozen for later use. At a later date, cells were thawed and lysed with the Bug Buster detergent (Novagen) containing Complete Protease Inhibitor Cocktail Tablets (Roche). The pH was lowered to 5.5 with 20 mM sodium acetate (NaOAc) and NaCl was added to a final concentration of 0.15 M. After 10 minutes with the detergent, the cell debris was removed by centrifugation, and the supernatant was loaded onto disposable chromatography columns containing a 10 ml bed volume of DEAE Cellulose (Sigma) for a batch weak ion exchange step. The resin was washed with 0.15 M NaCl, still in the presence of NaOAc, pH 5.5. The bound proteins were then eluted by two washes with 0.5 M NaCl.

[10] = molecular target: T9, 2,5-diketo-D-gluconic acid reductase A (Corynebacterium sp., wild type SEQ ID NO:1) variant K232Q (Corynebacterium sp., UniProt P06632, K232Q); test: as above; format: biochemical
T9 construct: GroES fragment (N); made in house; host or cells: E. coli JM109
T9 sequence (P06632 whole entry K232Q, the tested form may be a part): as the sequence (P06632 whole entry, the tested form may be a part) above, with K232Q counted along it
Protocol: as §1, §2, §3, §4, §6, §8, §13

[11] = kcat/Ka apparent with NADH, relative to wild type
[12] = versus wild type, NADH as varied substrate

NC(=O)C1=CN([C@@H]2O[C@H](COP(=O)(O)OP(=O)(O)OC[C@H]3O[C@@H](n4cnc5c(N)ncnc54)[C@H](O)[C@@H]3O)[C@@H](O)[C@H]2O)C=CC1 [NADH]
(kcat/KbKia)/(kcat/KbKia)wt [1, 11]: 1.00 | Kd ([1]; read-out: Kia): 2.6 ± 0.16 mM | Kia/(Kia)wt ([1]; relative to wild type, NADH): 1.00 | Kd [2]: 2.07 ± 0.13 mM | (kcat/KbKia)/(kcat/KbKia)wt [2, 11]: 6.71 | Kia/(Kia)wt ([2]; relative to wild type, NADH): 0.80 | improvement in apparent kcat [2, 12]: more than 5 fold | Kd [3]: 8.84 ± 2.28 mM | (kcat/KbKia)/(kcat/KbKia)wt [3, 11]: 0.54 | Kia/(Kia)wt ([3]; relative to wild type, NADH): 3.40 | increase of apparent Ka [3, 12]: more than 3 fold | increase of apparent kcat [3, 12]: 2 fold | Kd [4]: 8.45 ± 1.74 mM | (kcat/KbKia)/(kcat/KbKia)wt [4, 11]: 0.63 | Kia/(Kia)wt ([4]; relative to wild type, NADH): 3.25 | change of apparent kcat [4, 12]: doubled | increase of apparent Ka [4, 12]: more than 3 fold | Kd [5]: 8.42 ± 0.69 mM | (kcat/KbKia)/(kcat/KbKia)wt [5, 11]: 1.53 | Kia/(Kia)wt ([5]; relative to wild type, NADH): 3.24 | increase of apparent Ka [5, 12]: more than 3 fold | increase of apparent kcat [5, 12]: 5 fold | Kd [6]: 2.82 ± 0.27 mM | (kcat/KbKia)/(kcat/KbKia)wt [6, 11]: 0.40 | Kia/(Kia)wt ([6]; relative to wild type, NADH): 1.08 | Kd [7]: 2.02 ± 0.12 mM | (kcat/KbKia)/(kcat/KbKia)wt [7, 11]: 1.55 | Kia/(Kia)wt ([7]; relative to wild type, NADH): 0.78 | Km [8]: 22.8 µM | Kd [9]: 3.89 ± 0.23 mM | (kcat/KbKia)/(kcat/KbKia)wt [9, 11]: 0.55 | Kd [10]: 3.87 ± 0.34 mM | (kcat/KbKia)/(kcat/KbKia)wt [10, 11]: 0.59
